# From patent US5354748A, “Oral antibacterial compositions and method for the improvement of gastrointestinal absorption of penem or carbapenem antibiotics” (Suntory Limited, priority 1991, dated 1994)
# Settings: dog, in vivo
# Experimental: Capsules were prepared by filling capsules with a 12.6:1 or 126:1 (by molar ratio) mixture of sodium (1'R,2"R,5R,6S)-6-(1'-hydroxyethyl)-2-(2"-tetrahydrofuranyl)penem-3-carboxylate 2.5 hydrate and cilastatin, namely, with a powder mixture consisting of 75 mg of the penem carboxylate and 7.5 or 0.75 mg of cilastatin per capsule. One of the capsules was orally administered to matured dogs. The blood was collected during the period of from 0.25 to 4 hours after the administration, and the concentrations of the free acid of the penem in plasma samples were measured by HPLC. Further, urine samples were collected until 24 hours after the administration and the concentrations of the free acid of the penem in the urine samples were measured by HPLC.
# The area under the concentration:time curve (AUCpO) Of the compound contained in the plasma after its oral administration was compared to the area under the concentration:time curve (AUCiv) when the penemcarboxylate alone was intravenously administered at 10 mg/Kg and, assuming AUCiv be 100%, the percentage of AUCpo was calculated in accordance with the following formula and recorded as Oral Absorption Percentage A. Similarly, assuming that the percentage of excretion of the above penemcarboxylate into urine (Uiv) upon its intravenous administration at 10 mg/Kg be 100%, Oral Absorption Percentage B was calculated in accordance with the following formula from the percentage of excretion of the penemcarboxylate into urine upon its oral administration (Upo).
# Oral absorption A (%)=AUCpo/AUCiv×10/75×100
# Oral absorption B (%)=Upo/Uiv×100
smiles,measurement,setting,value
"C[C@@H](O)[C@H]1C(=O)N2C(C(=O)O)=C([C@H]3CCCO3)S[C@H]12 [sodium (1'R,2""R,5R,6S)-6-(1'-hydroxyethyl)-2-(2""-tetrahydrofuranyl)penem-3-carboxylate 2.5 hydrate]",Increase of oral absorption percentage (from AUC) relative to penemcarboxylate alone,,2.3 times
same,Oral absorption A,,33.9%
same,Increase of oral absorption percentage (from excretion into urine) relative to penemcarboxylate alone,1440 min,2.3 times
same,Oral absorption B,24 h,38.6%
same,Highest concentration in plasma,po,11.86 µg/mL
same,AUC,"po, 4 h",18620 ng·h/mL
same,Excretion into urine,"po, 24 h",16.58%
